Reference: patent US11167012B2, “Peptide inhibition of CCR3-mediated diseases or conditions” (The Board of Trustees of the University of Illinois, priority 2015, dated 2021)
Where a SMILES comes first, the peptide text is derived from it. The star is where a group is joined. X1 = NC(=O)CCOCCOCCOCCOCCOCCOCCOCCOCCOCCOCCOCCOCCOCCOCCOCCOCCOCCOCCOCCOCCOCCOCCOCCOCCOCCOCCOCCOCCN*

Key:
Gαi = Gαi activation, pull-down of GTP-bound Gαi in AML14.3D10-CCR3 cells; assay type: cell-based, human; details: 10 μM, 8 nM CCL11
Description: GTP-bound Gal was detected using a commercial Gαi assay kit (Abcam, Cambridge, Mass.) with modifications. Briefly, AML14.3D10-CCR3 cells were serum-starved for 16 hours before being pretreated with […] pertussis toxin for 2 hours, 10 μM R3-2-1 for 30 minutes, or with vehicle control. Pretreated cells were then stimulated with 8 nM CCL11 or medium for 1 minute. The reaction was stopped by adding ice cold PBS. Ten (10) million cells were used for each condition. Washed cells were lysed with 1× lysis buffer following manufacturer instructions. For pull-down of active Gαi, mouse anti-GTP bound Gαi antibody was conjugated to DYNABEADS Protein G (Life Technologies, Carlsbad, Calif.) for 15 minutes at room temperature. Conjugated beads were washed 3 times with Tris-buffered saline+TWEEN® polysorbate (TBST) and incubated with cell lysates for 20 minutes at room temperature. After washing with TBST, bound proteins were eluted by boiling the beads in 2×SDS buffer for 5 minutes. Eluates were resolved by SDS-PAGE and immunoblotted using a polyclonal rabbit anti-total Gαi antibody (Cell Signaling Technology).

CCR3 [1] = target: T1, CCR3 (Homo sapiens, UniProt P51677); experiment: CCR3 surface expression and internalization by flow cytometry, AML14.3D10-CCR3 cells; assay type: cell-based; parameters: host or cells: AML14.3D10-CCR3 (eosinophilic myelocytic cell line, kept under G418)
T1 sequence (P51677 1-355): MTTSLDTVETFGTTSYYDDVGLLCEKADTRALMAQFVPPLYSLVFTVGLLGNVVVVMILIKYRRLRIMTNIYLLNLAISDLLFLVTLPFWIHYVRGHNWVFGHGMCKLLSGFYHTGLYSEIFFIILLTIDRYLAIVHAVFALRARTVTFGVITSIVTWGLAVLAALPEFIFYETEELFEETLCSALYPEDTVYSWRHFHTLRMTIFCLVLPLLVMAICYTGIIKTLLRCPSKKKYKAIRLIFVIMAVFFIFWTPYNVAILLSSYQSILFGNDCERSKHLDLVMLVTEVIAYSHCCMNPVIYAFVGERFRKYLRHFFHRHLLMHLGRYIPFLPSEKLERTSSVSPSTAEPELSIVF
Description: Error bars represent SEM. *p<0.05, compared to untreated cells; n=3.
To assess surface expression of CCR3, cells were stained using PE-conjugated anti-human CCR3 antibody (clone 5E8, BioLegend) or PE-conjugated isotype-matched control after blocking with 10% human AB serum. To determine ligand-induced CCR3 internalization, cells were incubated with various chemokines for 1 hour at 37° C., washed once in staining buffer (PBS+0.5% BSA+0.1% NaN3) before being stained as above. After antibody staining, cells were fixed in 2% paraformaldehyde and analyzed on a QUANTA SC flow cytometer (Beckman Coulter, Indianapolis, Ind.).

CCR3 [2] = target: T1, CCR3; experiment: Chemotaxis assay (Transwell), blood eosinophils; assay type: cell-based; parameters: host or cells: AML14.3D10-CCR3 (eosinophilic myelocytic cell line, kept under G418); details: for IC90: blood eosinophils, 4 hours
Excerpt: Blood eosinophils were purified from anti-coagulated blood drawn from mild allergic asthmatic subjects. Peripheral blood was subjected to density gradient centrifugation over FICOLL-PAQUE® Plus (GE Healthcare, Pittsburgh, Pa.) media to obtain a pellet containing erythrocytes and granulocytes. After erythrocyte lysis via hypotonic shock, eosinophils were purified by negative selection using a cocktail of antibody-conjugated magnetic beads against non-eosinophils (Miltenyi Biotec, Auburn, Calif.). The eosinophils were resuspended in X-VIVO 10 without phenol red. The purity and viability of the eosinophils obtained was routinely >97% as assessed by Hema III and trypan blue staining, respectively.
Cell migration was determined using a 96-well TRANSWELL® system (Corning, Tewksbury, Mass.). Briefly, 200 μl chemoattractant or control medium was added to the lower chamber while 100 μl cells were added to the upper chamber. The two chambers were separated by a polycarbonate filter with 5 μm pores. For AML14.3D10-CCR3 cells, 2×10^5 cells/well were resuspended in RPMI-1640+0.1% BSA and allowed to migrate for 4 hours at 37° C. […] Migrated cells were counted using a Beckman QUANTA SC flow cytometer. All experiments were performed in duplicate. Checkerboard analysis was done to distinguish chemotaxis from chemokinesis.
Primary eosinophils and the stable CCR3+eosinophilic myelocytic cell line, AML14.3D10-CCR3 (Daugherty, et al. (1996) J. Exp. Med. 183:2349-2354) undergo CCR3-mediated chemotaxis induced by multiple chemokines including eotaxin/CCL11, RANTES/CCL5, MCP-4/CCL13, and MEC/CCL28 (Daugherty, et al. (1996) J. Exp. Med. 183:2349-2354; Pan, et al. (2000) J. Immunol. 165:2943-2949). […] In addition, R3-2-1 inhibits chemotaxis of both AML14.3D10-CCR3 and blood eosinophils induced by CCL11/Eotaxin-1, CCL24/Eotaxin-2, and CCL26/Eotaxin-3 in a dose-dependent fashion (Table 3).

CC[C@H](C)[C@H](NC(=O)[C@H](Cc1c[nH]c2ccccc12)NC(=O)[C@H](Cc1ccccc1)NC(=O)[C@@H]1CCCN1C(=O)[C@H](CC(C)C)NC(=O)[C@@H](NC(=O)[C@@H](NC(=O)[C@H](CC(C)C)NC(=O)[C@H](Cc1ccccc1)NC(=O)[C@H](CC(C)C)NC(=O)[C@@H](N)CC(C)C)C(C)C)[C@@H](C)O)C(=O)N[C@@H](Cc1c[nH]cn1)C(=O)N[C@@H](Cc1ccc(O)cc1)C(=O)N[C@H](C(=O)N[C@@H](CCCNC(=N)N)C(=O)NCC(=O)N[C@@H](Cc1c[nH]cn1)C(=O)N[C@@H](CC(N)=O)C(=O)N[C@@H](Cc1c[nH]c2ccccc12)C(=O)N[C@H](C(=O)N[C@@H](Cc1ccccc1)C(=O)NCC(=O)N[C@@H](Cc1c[nH]cn1)C(=O)N[C@@H](CC(=O)O)C(=O)N[C@@H](CC(=O)O)C(=O)N[C@@H](CC(=O)O)C(=O)NCCOCCOCCOCCOCCOCCOCCOCCOCCOCCOCCOCCOCCOCCOCCOCCOCCOCCOCCOCCOCCOCCOCCOCCOCCOCCOCCOCCOCCC(N)=O)C(C)C)C(C)C [Peptide R3-2-1] (H-LLFLVTLPFWIHYVRGHNWVFGHDDD-X1; N-terminus assumed)
activation of Gαi (GTP-bound form) (Gαi): inhibit the activation of Gαi | CCR3 internalization or surface accumulation on prolonged treatment (CCR3 [1]; 1 μM for 24, 48 or 72 hour, with or without CCL11 (12 nM)): promotes CCR3 internalization | CCL11-induced receptor internalization (CCR3 [1]; 1 μM, added concurrently with 12 nM CCL11): neither R3-2-1 (1 μM) nor R3-2-3 (1 μM) interfere with CCL11-induced receptor internalization | CCL11-induced CCR3 endocytosis (CCR3 [1]; 2 or 10 μM): does not inhibit CCL11-induced CCR3 endocytosis | surface CCR3 expression in the absence of CCR3 ligand (CCR3 [1]; AML14.3D10-CCR3 cells, significant at 1 μM): significantly decreases surface CCR3 expression | inhibition of chemotaxis of blood eosinophils (CCR3 [2]; 2, 10 or 50 μM): similarly able to inhibit chemotaxis of blood eosinophils | IC50 for inhibition of chemotaxis, in words (CCR3 [2]; CCL11-, CCL24-, CCL26-induced chemotaxis, summary of Table 3): low nanomolar range | IC90 (CCR3 [2]; chemotaxis to CCL11/Eotaxin-1 (12 nM)): 760 ± 100 nM | IC90 (CCR3 [2]; chemotaxis to CCL24/Eotaxin-2 (20 nM)): 730 ± 100 nM | IC90 (CCR3 [2]; chemotaxis to CCL26/Eotaxin-3 (100 nM)): 1100 ± 150 nM
